Assay: Stability of cannabinoid compounds and Vitamin E components in Beverage 1 (AB White) by LCMSMS
Format: physicochemical

Structure (SMILES): Cc1c(C)c2c(c(C)c1O)CC[C@@](C)(CCC[C@H](C)CCC[C@H](C)CCCC(C)C)O2 [α-Tocopherol]
- Stability of Vitamin Es in AB White (stored at 8° C., 0 days): 26.1 µg/mL
- Stability of Vitamin Es in AB White (stored at 8° C., 1 days): 24.90 µg/mL
- Stability of Vitamin Es in AB White (stored at 8° C., 2 days): 23.46 µg/mL
- Stability of Vitamin Es in AB White (stored at 8° C., 3 days): 23.21 µg/mL
- Stability of Vitamin Es in AB White (stored at 8° C., 5 days): 23.39 µg/mL
- Stability of Vitamin Es in AB White (stored at 8° C., 8 days): 24.65 µg/mL
- Stability of Vitamin Es in AB White (stored at 8° C., 9 days): 24.42 µg/mL
- Stability of Vitamin Es in AB White (stored at 8° C., 10 days): 24.57 µg/mL
- Stability of Vitamin Es in AB White (stored at 8° C., 11 days): 25.45 µg/mL
- Stability of Vitamin Es in AB White (stored at 8° C., 12 days): 23.97 µg/mL
- Stability of Vitamin Es in AB White (stored at 8° C., 15 days): 25.48 µg/mL
- Stability of Vitamin Es in AB White (stored at 8° C., 16 days): 25.02 µg/mL
- Stability of Vitamin Es in AB White (stored at 8° C., 17 days): 24.17 µg/mL
- Stability of Vitamin Es in AB White (stored at 8° C., 18 days): 23.28 µg/mL
- Stability of Vitamin Es in AB White (stored at 8° C., 19 days): 24.12 µg/mL
- Stability of Vitamin Es in AB White (stored at 8° C., 22 days): 23.51 µg/mL
- Stability of Vitamin Es in AB White (stored at 8° C., 23 days): 24.27 µg/mL
- Stability of Vitamin Es in AB White (stored at 8° C., 24 days): 24.72 µg/mL
- Stability of Vitamin Es in AB White (stored at 8° C., 25 days): 25.28 µg/mL
- Stability of Vitamin Es in AB White (stored at 8° C., 26 days): 25.25 µg/mL
- Stability of Vitamin Es in AB White (stored at 8° C., 29 days): 24.87 µg/mL
- Stability of Vitamin Es in AB White (stored at 8° C., 30 days): 23.64 µg/mL
- Stability of Vitamin Es in AB White (stored at 8° C., 60 days): 22.96 µg/mL
- Stability of Vitamin Es in AB White (stored at 8° C., 90 days): 24.27 µg/mL
- Stability of Vitamin Es in AB White (stored at 8° C., 120 days): 23.01 µg/mL
- Stability of Vitamin Es in AB White (stored at 8° C., 150 days): 24.32 µg/mL
- Stability of Vitamin Es in AB White (stored at 8° C., 180 days): 24.54 µg/mL
- Stability of Vitamin Es in AB White (stored at 8° C., 210 days): 23.71 µg/mL
- Stability of Vitamin Es in AB White (stored at 8° C., 240 days): 22.68 µg/mL
- Stability of Vitamin Es in AB White (stored at 8° C., 270 days): 22.68 µg/mL
- Stability of Vitamin Es in AB White (stored at 8° C., 300 days): 22.76 µg/mL
- Stability of Vitamin Es in AB White (stored at 8° C., 330 days): 23.21 µg/mL
- Stability of Vitamin Es in AB White (stored at 8° C., 360 days): 22.25 µg/mL
- Stability of Vitamin Es in AB White (stored at 8° C., 390 days): 22.45 µg/mL
- Stability of Vitamin Es in AB White (stored at 8° C., 420 days): 22.35 µg/mL
- Stability of Vitamin Es in AB White (stored at 8° C., 450 days): 22.88 µg/mL
- Stability of Vitamin Es in AB White (stored at 8° C., 480 days): 22.05 µg/mL
- Stability of Vitamin Es in AB White (stored at 8° C., 510 days): 21.32 µg/mL
- Stability of Vitamin Es in AB White (stored at 8° C., 540 days): 21.72 µg/mL
- Stability of Vitamin Es in AB White (stored at 8° C., 570 days): 22.00 µg/mL
- Stability of Vitamin Es in AB White (stored at 21-25° C., 0 days): 26.1 µg/mL
- Stability of Vitamin Es in AB White (stored at 21-25° C., 1 days): 25.1 µg/mL
- Stability of Vitamin Es in AB White (stored at 21-25° C., 2 days): 25.5 µg/mL
- Stability of Vitamin Es in AB White (stored at 21-25° C., 3 days): 25.8 µg/mL
- Stability of Vitamin Es in AB White (stored at 21-25° C., 5 days): 25.4 µg/mL
- Stability of Vitamin Es in AB White (stored at 21-25° C., 8 days): 23.9 µg/mL
- Stability of Vitamin Es in AB White (stored at 21-25° C., 9 days): 25.3 µg/mL
- Stability of Vitamin Es in AB White (stored at 21-25° C., 10 days): 26.3 µg/mL
- Stability of Vitamin Es in AB White (stored at 21-25° C., 11 days): 26.0 µg/mL
- Stability of Vitamin Es in AB White (stored at 21-25° C., 12 days): 24.6 µg/mL
- Stability of Vitamin Es in AB White (stored at 21-25° C., 15 days): 23.9 µg/mL
- Stability of Vitamin Es in AB White (stored at 21-25° C., 16 days): 24.2 µg/mL
- Stability of Vitamin Es in AB White (stored at 21-25° C., 17 days): 26.2 µg/mL
- Stability of Vitamin Es in AB White (stored at 21-25° C., 18 days): 25.3 µg/mL
- Stability of Vitamin Es in AB White (stored at 21-25° C., 19 days): 23.8 µg/mL
- Stability of Vitamin Es in AB White (stored at 21-25° C., 22 days): 25.7 µg/mL
- Stability of Vitamin Es in AB White (stored at 21-25° C., 23 days): 23.8 µg/mL
- Stability of Vitamin Es in AB White (stored at 21-25° C., 24 days): 25.8 µg/mL
- Stability of Vitamin Es in AB White (stored at 21-25° C., 25 days): 25.0 µg/mL
- Stability of Vitamin Es in AB White (stored at 21-25° C., 26 days): 24.8 µg/mL
- Stability of Vitamin Es in AB White (stored at 21-25° C., 29 days): 26.1 µg/mL
- Stability of Vitamin Es in AB White (stored at 21-25° C., 30 days): 23.9 µg/mL
- Stability of Vitamin Es in AB White (stored at 21-25° C., 60 days): 25.0 µg/mL
- Stability of Vitamin Es in AB White (stored at 21-25° C., 90 days): 23.7 µg/mL
- Stability of Vitamin Es in AB White (stored at 21-25° C., 120 days): 24.7 µg/mL
- Stability of Vitamin Es in AB White (stored at 21-25° C., 150 days): 24.4 µg/mL
- Stability of Vitamin Es in AB White (stored at 21-25° C., 180 days): 23.6 µg/mL
- Stability of Vitamin Es in AB White (stored at 21-25° C., 210 days): 23.1 µg/mL
- Stability of Vitamin Es in AB White (stored at 21-25° C., 240 days): 24.2 µg/mL
- Stability of Vitamin Es in AB White (stored at 21-25° C., 270 days): 23.1 µg/mL
- Stability of Vitamin Es in AB White (stored at 21-25° C., 300 days): 24.2 µg/mL
- Stability of Vitamin Es in AB White (stored at 21-25° C., 330 days): 24.4 µg/mL
- Stability of Vitamin Es in AB White (stored at 21-25° C., 360 days): 23.6 µg/mL
- Stability of Vitamin Es in AB White (stored at 21-25° C., 390 days): 23.1 µg/mL
- Stability of Vitamin Es in AB White (stored at 21-25° C., 420 days): 22.8 µg/mL
- Stability of Vitamin Es in AB White (stored at 21-25° C., 450 days): 23.4 µg/mL
- Stability of Vitamin Es in AB White (stored at 21-25° C., 480 days): 21.6 µg/mL
- Stability of Vitamin Es in AB White (stored at 21-25° C., 510 days): 21.9 µg/mL
- Stability of Vitamin Es in AB White (stored at 21-25° C., 540 days): 22.0 µg/mL
- Stability of Vitamin Es in AB White (stored at 21-25° C., 570 days): 22.2 µg/mL
